9 compounds from PubChem BioAssay (NCI) can be followed below.

Values joined by “and” are separate entries in the source; they are usually repeats but may differ in a detail not shown here. Identical values can stand only once.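 Exposure lasted 48 hours, with cells grown in 96-well plates and compounds tested at five concentrations. The concentration for 50% growth inhibition is given as GI50. Definition used: TGI = concentration required for complete inhibition of growth.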

Common to all, as to test: NCI-60 cell line screen, 48 h
Test [1] has as its system PC-3 prostate.
The test system of test [2] is A498 renal.
Test [3] concerns SNB-19 CNS.
The test system of test [4] is UACC-62 melanoma.
Test [5] has as its system SF-539 CNS.
Test [6] deals with 786-0 renal.
In test [7] the test system is SF-295 CNS.
Test [8] relates to OVCAR-3 ovarian.
For test [9], the system named is UO-31 renal.
Test [10] has as its system HCC-2998 colon.

Consider `COc1ccc2c(c1)CCc1cc(OC)ccc1/[N+]([O-])=[N+]\2[O-]`, for which the TGI turned out to be 31.6 µM in test [1]; 34.2 µM in test [2]; 39 µM in test [3]; 30.6 µM in test [4]; 44 µM in test [5]; 18.6 µM in test [6]. The TGI in test [7] was 37.6 µM; in test [8], 33.9 µM; in test [9], 25.9 µM; in test [10], 58.2 µM.

`C#CC1(O)C(COP(=O)(O)OCC2OC(n3cc(F)c(=O)[nH]c3=O)CC2O)OC(n2ccc(N)nc2=O)C1O` (stereo unspecified): the GI50 in [1] is < 0.0305 µM; in test [2] it was < 0.0134 µM; in test [4], < 0.0141 µM; in test [5], < 0.01 µM; in [6], < 0.01 µM; in [7], < 0.01 µM. The GI50 in test [8], in [9] and in [10] was < 0.01 µM in each case. The TGI in [1] is > 69 µM; in test [2] it was 0.199 µM; in test [3] it was > 100 µM; in [4] it was 0.372 µM; in test [5], 0.527 µM; in test [6] it was > 100 µM. In addition, the TGI in [7] was 4.26 µM; in [8], 0.746 µM; in test [9], > 100 µM.

Take `CC(=O)Nc1cc2cc(NS(=O)(=O)c3ccc(Cl)c(Cl)c3)ccc2oc1=O`: the TGI in test [1] is 51.1 µM; in [2] it was 40.7 µM; in [3], > 100 µM; in test [4], 62.8 µM; in test [5] it was 56.1 µM; in test [6] it was 32.4 µM. Also, the TGI in [7] was 44.5 µM; in [8], > 100 µM; in test [9] it was > 100 µM; in test [10] it was > 100 µM.

Regarding `c1ccc(Oc2ccc(Nc3ncc(-c4ccccc4)o3)cc2)cc1`, the GI50 in [1], in test [2], in test [3], in test [4], in test [5] and in test [6] was > 25 µM each time. The GI50 in [7], in [8], in test [9] and in test [10] was > 25 µM in each case. Also, the TGI in test [1], in test [2], in test [3], in test [4], in [5] and in [6] was > 25 µM each time. In addition, the TGI in [7], in test [8], in test [9] and in test [10] was > 25 µM each time.

Turning to `CC(=O)Nc1ccc(S(=O)(=O)N=S(C)C)cc1`, the TGI in test [1], in test [2], in [3], in test [4], in [5] and in [6] was > 100 µM throughout. Moreover, the TGI in [7], in test [8], in test [9] and in [10] was > 100 µM in each case.

In the case of `CS(=O)(=O)c1cccc(Nc2ncc3cc(-c4ccccc4Cl)ccc3n2)c1`, the GI50 in test [1] is 1.79 µM; in [2], 1.75 µM; in test [3] it was 2.46 µM; in test [4], 1.17 µM; in test [5], 0.94 µM; in test [6], 1.38 µM. Further, the GI50 in [7] is 1.6 µM; in test [8], 1.52 µM; in [9] it was 0.803 µM; in test [10] it was 2.8 µM. Further, the TGI in [1] is > 33.3 µM; in test [2], 12.1 µM; in test [3], > 33.3 µM; in test [4], 5.74 µM; in test [5], 25.5 µM; in test [6], > 33.3 µM. For the same compound, the TGI in test [7] was > 33.3 µM; in test [8], > 33.3 µM; in [9], 6.41 µM; in [10], > 33.3 µM.

In the case of `CC[C@H](C)[C@H](NC(=O)[C@H]1CCCCN1C)C(=O)N(C)[C@H](C[C@@H](OC(C)=O)c1cccc(C(=O)N[C@@H](Cc2ccccc2)C[C@H](C)C(=O)O)n1)C(C)C`, the GI50 is 0.00273 µM and 0.0025 µM in test [1]; 0.00184 µM and < 0.0025 µM in [2]; 0.00138 µM and 0.0025 µM in test [3]; 0.00038 µM and 0.0025 µM in [4]; 0.00148 µM and < 0.0025 µM in [5]; 0.00555 µM and 0.0025 µM in [6]. Further, the GI50 was 0.00275 µM and < 0.0025 µM in test [7]; 0.000389 µM and < 0.0025 µM in [8]; 0.00551 µM and 0.0025 µM in test [10]. The TGI in test [1] was > 25 µM; in [3], > 25 µM; in test [4], > 25 µM; in test [5], 0.00742 µM and < 0.0025 µM; in test [6], > 25 µM; in [7] it was < 0.0025 µM. In addition, the TGI in [8] is 0.0165 µM and < 0.0025 µM; in test [9], > 25 µM; in [10], > 25 µM.

Consider `CCC(C)C1=C(O)[N+]2([O-])Oc3ccc(C4=C(O)C(=O)C(c5ccc(O)cc5)=C(O)C4=O)cc3OC2(C(C)CC)C(=O)N1O` (stereo unspecified), for which the GI50 in [1] was 6.14 µM; in test [2], 5.24 µM; in test [3], 4.95 µM; in [4] it was 5.68 µM; in test [5], 15.8 µM; in test [6] it was 26.1 µM. The GI50 in test [7] is 13.9 µM; in [8], 5.39 µM; in test [9] it was 22.2 µM; in [10], 6.78 µM. The TGI was > 100 µM in test [1]; 41.9 µM in [2]; 83.6 µM in [3]; 65.1 µM in test [4]; > 100 µM in test [5]; > 100 µM in [6]. The TGI in test [7] is > 100 µM; in [8], 49.1 µM; in test [9], > 100 µM; in [10], 57.2 µM.

Consider `Oc1[nH]c2ccccc2c1/C=c1/ccc2c(c1)N=C(c1ccc(C(F)(F)F)cc1)N=2`, for which the GI50 in test [1] is 1.54 µM; in test [2], 1.54 µM; in [3] it was 5.38 µM; in test [4] it was 2.62 µM; in [5], 7.45 µM; in test [6] it was 1.48 µM. Further, the GI50 in test [7] was 2.7 µM; in test [8], 0.74 µM; in [9], 2.48 µM; in [10], 3.77 µM. Further, the TGI in test [1] was determined as 3.75 µM; in [2], 11.2 µM; in test [3], 21.1 µM; in test [4], 15.8 µM; in test [5], 21.1 µM; in test [6] it was 3.56 µM. The TGI in [7] stood at 12.2 µM; in test [8], 3.89 µM; in test [9], 13 µM; in [10], 16.2 µM.
